The test system of one series is blood glucose level. As to the kind of experiment: Lowering of sugar level in blood after oral starch load. It counts as in vivo. The settings on record: male SD rats fasted 12 hrs, 1 hr after administration, glucose oxidase method. As for the experimental part:
To two groups of 5 male SD rats fasted for 12 hrs, 1.5 g/kg of starch was orally administered, concurrently with 40 mg/kg and 80 mg/kg of samples. Then, blood was taken from the rats after 1 hr from administration, and glucose level in blood was determined by glucose oxidase method and compared with control group which has not taken the CK-4416 sample.

A short description of the next series: Solubility. Type of series: physicochemical. The text has this: soluble in water and ethanol insoluble in benzene and normal hexane
Series [1] deals with Gram-positive bacterial strains. The experiment in a line: Antibacterial activity, paper disc method, Gram-positive strains. It counts as cell-based. The settings on record: 1 mg/ml sample. As for the experimental part: (§1) Antibacterial activities for Gram-positive and negative bacterial strains were determined with 1 mg/ml of CK-4416 sample, by employing paper disc method.
Another series deals with amylase. As to the kind of experiment: Inhibition of amylase activity. It counts as biochemical. Conditions: 0.25M phosphate buffer pH 7.0, starch substrate, 37° C., absorbance at 660 nm; 30 min; read-out: half(50%) inhibition ratio for amylase activity(IC50). As for the experimental part:
An enzyme solution(hereinafter referred to as `solution A`) containing amylase dissolved in 0.25M phosphate buffer(pH 7.0), 0.25M phosphate buffer solution(pH 7.0)(hereinafter referred to as `solution B`) and 0.04 (w/v) % starch solution (hereinafter referred to as `solution C`) were prepared, respectively. Then, 0.05 ml of solution B containing CK-4416 dissolved in solution B, 0.1 ml of solution B and 0.05 ml of solution B were combined to incubate at 37° C. for 5 min, and further incubated for 30 min after the addition of 0.5 ml of solution C. After […], absorbance at 660 nm was deter-mined for CK-4416 sample(T) and control(C) which is free of sample.
Inhibition ratio=(C-T)/C×100

For series [2], the system named is Comamonas terrigena(ATCG 8461). The experiment in a line: Antibacterial activity, paper disc method, Gram-negative strain. Type of series: cell-based. The settings on record: 1 mg/ml sample, read-out: inhibitory zone. As for the experimental part:
To four of 500 ml Erlenmeyer flasks was addled 100 ml of a medium for seed culture(pH 6.5) containing glucose 1 (w/v) %, dextrin 1 (w/v) %, NZ-amine(type A) 0.5 (w/v) %, yeast extract 0.5 (w/v) % and calcium carbonate 0.1 (w/v) %, and sterilized at 120° C. for 15 min. 1 platinum loop of slant culture of Streptomyces sp. CK-4416 which was obtained from a subculture, was inoculated to each of four flasks and incubated under shaking at 27° C. for 3 days. Then, 100 ml of culture media(pH 6.5) containing soluble starch 3 (w/v) %, soybean powder 1.5 (w/v) %, corn steep liquor 1.5 (w/v) %, polypeptone 0.2 (w/v) %, Na2 S2 O3 0.1 (w/v) %, calcium carbonate 0.5 (w/v) %, cobalt chloride 0.0001 (w/v) % was added to 200 of 500 ml Erlenmeyer flasks and sterilized at 120° C. for 30 min. 2 (v/v) % of seed culture was inoculated to the media and incubated at 27° C. for 3 days under shaking at 240 rpm. CK-4416 was quantitatively assayed by the determination of antimicrobial activity employing a test organism Comamonas terrigena(ATCC 8461) in accordance with conventional paper disc method. After 3 days culture, pH and yield were determined as 7.2 and 0.06 mg/ml, respectively.
as §1

Series [3] is described as follows: Acidic, neutral or basic properties. It counts as physicochemical. The source says:
13. Acidic, neutral or basic properties:

Take `OCC1OC(OC2C(CO)OC(OC3C(CO)OC(OC4C(CO)OC(OC5C(CO)OC(O)C(O)C5O)C(O)C4O)C(O)C3O)C(O)C2O)C(O)C(O)C1NC1C(O)C(O)C(O)C2(CO)OC12` (single isomer, unassigned) [CK-4416]: the Blood glucose level with blood glucose level (40 mg/kg oral with 1.5 g/kg starch) is listed as 97.5 ± 14.3; in the series on blood glucose level (80 mg/kg oral with 1.5 g/kg starch) it was 87.5 ± 11.3. Further, the Solubility result in the series “Solubility” (in benzene and normal hexane) is reported as “insoluble”; in “Solubility” (in water and ethanol), “soluble”. Also, in series [1], the Antibacterial activity entry is “no activity”. For the same molecule, at amylase, the IC50 was found to be 1600 nM. In series [2], the zone of inhibition at 1000 µg/mL amounted to 24.8 mm. Also, in series [3], the “Acidic, neutral or basic properties” value is on record as “weakly basic”.

The values above are taken from patent US5866377A, “Aminooligosaccharide derivative and process for preparing the same” (Chong Kun Dang Corporation, priority 1994, dated 1999).
